Assays:
[1] = for mass density / electrical conductivity / viscosity: 100 kPa, Liquid; for mass density: Vibrating tube method; for surface tension liquid-gas: pt plate; for electrical conductivity: Alternating current cell with electrodes; for viscosity: Falling or rolling sphere viscometry
[2] = xn = mol fraction of the nth substance listed; details: 100 kPa, Liquid, Vibrating tube method, x2 = 0

CC#N [acetonitrile]
[1]
Details	mass density [kg/m3]
288.15 K	787.33
293.15 K	781.96
298.15 K	776.61
303.15 K	771.18
308.15 K	765.73
313.15 K	760.25
318.15 K	754.72
323.15 K	749.16

CC#N [acetonitrile] + C[n+]1ccn(CCCC#N)c1.F[B-](F)(F)F
[2]
Details	mass density [kg/m3]
288.15 K	787.33
293.15 K	781.96
298.15 K	776.61
303.15 K	771.18
308.15 K	765.73
313.15 K	760.25
318.15 K	754.72
323.15 K	749.16

C[n+]1ccn(CCCC#N)c1.F[B-](F)(F)F [1-butyronitrile-3-methylimidazolium tetrafluoroborate]
[1]
Details	electrical conductivity [S/m]	mass density [kg/m3]	surface tension liquid-gas [mN/m]	viscosity [mPa·s]
288.15 K	0.058	1316.07	49.1	590.6
293.15 K	0.085	1312.33	48.7	417.9
298.15 K	0.123	1308.61	48.4	302.6
303.15 K	0.171	1304.81	48.1	223.3
308.15 K	0.231	1301.05	47.7	169.9
313.15 K	0.305	1297.32	47.4	128.7
318.15 K	0.393	1293.59	47.1	100.6
323.15 K	0.498	1289.86	46.8	79.82
